# Measured values taken from US20250059227A1, “ARTIFICIAL NUCLEIC ACID, METHOD FOR PRODUCING SAME, AND USE OF SAME” (RIKEN GENESIS CO., LTD., priority 2021, published 2025).
# [NMe] = code of the source, not defined here; [(B)β] = from compound B-13; [(C)Hβ] = from compound C-8; d = 2'-deoxy (DNA)
# Columns and labels:
# [1] = test system: single-stranded DNA (5′-d(agcaaaaaacgc)-3′; SEQ ID NO: 7) (a sense strand); assay: Melting temperature (Tm), capability of forming double strand with single-stranded DNA; assay type: binding; conditions: for capability of forming a double strand with single-stranded DNA versus single-stranded RNA: antisense strand as shown in SEQ ID NO: 1, modified with one base; for Tm: pH 7.2
# [2] = test system: single-stranded RNA (5′-r(agcaaaaaacgc)-3′; SEQ ID NO: 8) (a sense strand); assay type: binding; conditions: pH 7.2
substance,measurement,setting,value
"5′-d(gcgttxtttgct)-3′ x = (B)β-T: (B)β-T modified oligonucleotide, antisense 12-mer DNA (SEQ ID NO: 1), one x = (B)β-T unit from compound B-13 (antisense GCGTTTTTTGCT; sugars from the 5' end d5 [(B)β]1 d6, backbone not given here)",capability of forming a double strand with single-stranded DNA versus single-stranded RNA,[1],superior capability of forming a double strand together with single-stranded DNA over single-stranded RNA
"5′-d(gcgttxtttgct)-3′ x = (C)Hβ-T: (C)Hβ-T modified oligonucleotide, antisense 12-mer DNA (SEQ ID NO: 1), one x = (C)Hβ-T unit from compound C-8 (antisense GCGTTTTTTGCT; sugars from the 5' end d5 [(C)Hβ]1 d6, backbone not given here)",capability of forming a double strand with single-stranded DNA versus single-stranded RNA,[1],superior capability of forming a double strand together with single-stranded DNA over single-stranded RNA
"5′-d(gcgtxxxttgct)-3′ x = NMe-T: reference antisense 12-mer (SEQ ID NO: 3); three x = formula (9) unit, Base thymin-1-yl, R^b Me (antisense GCGTTTTTTGCT; sugars from the 5' end d4 [NMe]3 d5, backbone and methylation of C not given here)",Tm,[1],51 °C
same,Tm,[2],60 °C
"5′-d(gcgxtxtxtgct)-3′ x = NMe-T: reference antisense 12-mer (SEQ ID NO: 2); three x = formula (9) unit, Base thymin-1-yl, R^b Me (antisense GCGTTTTTTGCT; sugars from the 5' end ddd[NMe]d[NMe]d[NMe]dddd, backbone and methylation of C not given here)",Tm,[1],52 °C
same,Tm,[2],64 °C
